According to patent US5618931A, “Acetylenes disubstituted with a 5 substituted dihydronaphthyl group and with an aryl or heteroaryl group having retinoid-like biological activity” (Allergan, priority 1994, dated 1997):

Tested on: ornithine decarboxylase (ODC), TPA-induced activity
Test: ODC assay: inhibition of TPA induction of ornithine decarboxylase
Type: biochemical
Conditions: concentration of the test compound which causes 80% inhibition in the ODC assay (TPA-induced ODC)
Description: The retinoic acid-like activity of these compounds is confirmed through the classic measure of retinoic acid activity involving the effects of retinoic acid on ornithine decarboxylase. The original work on the correlation between retinoic acid and decrease in cell proliferation was done by Verma & Boutwell, Cancer Research, 1977, 37,2196-2201. That reference discloses that ornithine decarboxylase (ODC) activity increased precedent to polyamine biosynthesis. It has been established elsewhere that increases in polyamine synthesis can be correlated or associated with cellular proliferation. Thus, if ODC activity could be inhibited, cell hyperproliferation could be modulated. Although all cases for ODC activity increases are unknown, it is known that 12-O-tetradecanoylphorbol-13-acetate (TPA) induces ODC activity. […] Activity of exemplary compounds of the present invention in the above-described ODC assay is disclosed in Table 2 which provides the IC80 concentration for the respective exemplary compound. ("IC80 " is that concentration of the test compound which causes 80% inhibition in the ODC assay. By analogy, IC60, for example, is that concentration of the test compound which causes 60% inhibition in the ODC assay.)

Structure (SMILES) | IC80 conc [nmols]
CCOC(=O)c1ccc(C#Cc2ccc3c(c2)C(C)(C)CC=C3OS(=O)(=O)C(F)(F)F)cc1 [Compound 87, Ethyl 4-[(5-trifluoromethylsulfonyloxy-7,8-dihydro-8,8-dimethylnaphth-2-yl)ethynyl]benzoate] | 16.80
CCOC(=O)c1ccc(C#Cc2ccc3c(c2)C(C)(C)CC=C3OC(C)=O)cc1 [Compound 105, Ethyl 4-[(5-acetoxy-7,8-dihydro-8,8-dimethylnaphth-2-yl)ethynyl]benzoate] | 0.76
CCOC(=O)c1ccc(C#Cc2ccc3c(c2)C(OC(C)=O)=CCC3(C)C)cc1 [Compound 126, Ethyl 4-[(5-acetoxy-7,8-dihydro-8,8-dimethylnaphth-3-yl)ethynyl]benzoate] | 0.58

The remaining lines, values ahead:

IC80 conc [nmols] | Structure (SMILES)
17.00 | CCOC(=O)c1ccc(C#Cc2ccc3c(c2)C(OS(=O)(=O)C(F)(F)F)=CCC3(C)C)cc1 [Compound 66, Ethyl 4-[(5-trifluoromethylsulfonyloxy-7,8-dihydro-8,8-dimethylnapth-3-yl)ethynyl]benzoate]
2.3 | CCOC(=O)c1ccc(C#Cc2ccc3c(c2)C(Sc2ccccc2)=CCC3(C)C)cc1 [Compound 155, Ethyl 4-[(7,8-dihydro-8,8-dimethyl-5-phenylthionaphth-3yl)ethynyl]benzoate]
< 0.1 | CCOC(=O)c1ccc(C#Cc2ccc3c(c2)C(S(=O)(=O)c2ccccc2)=CCC3(C)C)cc1 [Compound 157, Ethyl 4-[(7,8-dihydro-8,8-dimethyl-5-phenylsulfonylnaphth-3-yl)ethynyl]benzoate]

Tested on: ornithine decarboxylase (ODC), TPA-induced activity
Test: not given
Conditions: background statement on retinoic acid; cited from earlier work

Structure (SMILES) | inhibition of TPA induction of ODC activity (in words)
CC1=C(/C=C/C(C)=C/C=C/C(C)=C/C(=O)O)C(C)(C)CCC1 [Retinoic acid] | inhibits this induction of ODC activity by TPA
